Consider 3 molecules from article PMC6154719 (Molecules : A Journal of Synthetic Chemistry and Natural …, 2017).

Format in all cases: in vitro ADME
The test system of data set [1] is CYP2B/3A (CYP3A4/2B6, BROD activity). The experiment in a line: CYP2B/3A (BROD activity, benzyloxyresorufin O-debenzylation) in human liver microsomes. The following applies: probe benzyloxyresorufin (O-debenzylation), 0.5-5.0 µM; human liver microsomes, BROD activity. Here is the method: (§1) Enzyme activities were assayed in human and rat liver cytosolic and microsomal fractions. The enzyme assays (each performed in 4–8 replicates) were repeated three times (HPLC measurement of CYP activities was repeated only twice, Table 3). Inhibition studies were carried out by incubation of specific substrates in the presence of sesquiterpenes (in the range 0–100 µM).
(§2) Enzyme activities of individual CYP forms were measured according to established protocols. The following microsomal CYP activities were tested: CYP2A6, coumarin 7-hydroxylation; CYP2B6, 7-ethoxy-4-(trifluoromethyl)coumarin 7-deethylation, CYP2C9, diclofenac 4′-hydroxylation, CYP2C19 assay, S-mephenytoin 4′-hydroxylation, CYP2D6 on bufuralol 1′-hydroxylation, CYP2E1, chlorzoxazone 6-hydroxylation and CYP3A4, testosterone 6β-hydroxylation, and midazolam 1′-hydroxylation. Activities were measured using the Prominence HPLC system (Shimadzu, Kyoto, Japan), equipped with a LiChroCART 250-4 LiChrospher 100 RP-18 column or Chromolith®HighResolution RP-18 end-capped column (Merck, Darmstadt, Germany) and UV or fluorescence detection, according to the cited literature. Further incubation details are described either in the corresponding references, as well as in the papers from this laboratory e.g., [42, 43, 44]. CYP1A2, 7-ethoxyresorufin O-deethylation, and CYP3A4/2B6 (human), CYP2B1 (rat), benzyloxyresorufin O-debenzylation were measured using the microplate reader Tecan Infinite M200 (Tecan Group; Mannedorf, Switzerland).
(§3) Sesquiterpenes CNER, TNER and FAR, non-volatile liquids, were pipetted, and proper concentration was calculated according to density. All compounds were dissolved in DMSO. The final solvent concentration in the inhibition assays was 1%, which had no effect on the enzyme activity (data not shown). Non-enzymatic interference of sesquiterpenes with some compounds in the reaction mixtures (e.g., fluorescence enhancing or quenching) was considered and excluded. All experiments were performed in three replicates, if not stated otherwise.
(§4) CNER, TNER and FAR at a fixed concentration of 100 µM were screened for inhibition of cytosolic AKR1A1, AKR1C, CBR1, NQO1, SULT, and GST, and microsomal CYPs and UGT. The degree of inhibition caused by sesquiterpenes was compared with non-inhibited control reactions, which contained solvent without sesquiterpenes.
(§5) The concentration of sesquiterpenes required for 50% inhibition of enzyme activity, the IC50 value, was determined. Their final concentrations in the reaction mixture were proposed to cover the entire inhibitory range of these compounds (1–100 µM). The IC50 values for each sesquiterpene were determined by plotting sigmoidal dose response curves of specific enzyme activity vs. logarithm of sesquiterpene concentration using GraphPad Prism version 6.07 for Windows (GraphPad Software Inc., La Jolla, CA, USA).
(§6) The kinetic inactivation study of the CYP1A2 (EROD activity) and CYP2B/3A (BROD activity), both in rat and human, with TNER, was performed to find out the mechanism of enzyme inhibition by this sesquiterpene. Mechanism of EROD and BROD inhibition was tested at the final ethoxyresorufin or benzyloxyresorufin concentrations 0.5–5.0 µM. The concentration of TNER was 5.0 µM.
(§7) Experimental data were fitted to the Michaelis-Menten equation, basic kinetic parameters were determined using the program GraphPad Prism version 6.07 for Windows. The type of inhibition was estimated using a Lineweaver-Burk (double-reciprocal) plot.
(In general: Liver microsomes are vesicles of endoplasmic reticulum, rich in cytochrome P450 enzymes.)

Data set [2] concerns CYP2B/3A (CYP2B1, BROD activity). The experiment in a line: CYP2B/3A (BROD activity, benzyloxyresorufin O-debenzylation) in rat liver microsomes. The following applies: probe benzyloxyresorufin (O-debenzylation), 0.5-5.0 µM; rat liver microsomes, BROD activity. Here is the method:
as §1, §2, §3, §4, §5, §6, §7

The next data set has as its target T1, CYP2C19 (Homo sapiens, UniProt P33261).
T1 construct: other CYP-mediated activities in human liver microsomes; from tissue; host or cells: human liver microsomal fraction
The experiment in a line: CYP2C19 S-mephenytoin 4′-hydroxylation in human liver microsomes (HPLC). The note with it: substrate S-mephenytoin, n = 2. Here is the method: as §1
as §2, with “Further incubation details are described either in the corresponding references, as well as in the papers from this laboratory e.g., [42, 43, 44].” left out, “Switzerland). […]” for “Switzerland).”

The subject of data set [3] is CYP3A4/5. The experiment in a line: CYP3A4/5 testosterone 6β-hydroxylation in human liver microsomes (HPLC). The following applies: substrate testosterone, n = 2. Here is the method:
as §1, §2, §5

The target in the next data set is T2, CYP2A6 (Homo sapiens, UniProt P11509).
T2 construct: other CYP-mediated activities in human liver microsomes; from tissue; host or cells: human liver microsomal fraction
The experiment in a line: CYP2A6 coumarin 7-hydroxylation in human liver microsomes (HPLC). The following applies: substrate coumarin, n = 2. Here is the method: as §1
as §2, with “Further incubation details are described either in the corresponding references, as well as in the papers from this laboratory e.g., [42, 43, 44].” left out, “Switzerland). […]” for “Switzerland).”

In data set [4] the test system is CYP3A4/5. The experiment in a line: CYP3A4/5 midazolam 1′-hydroxylation in human liver microsomes (HPLC). The following applies: substrate midazolam, n = 2. Here is the method:
as §1
as §2, with “Further incubation details are described either in the corresponding references, as well as in the papers from this laboratory e.g., [42, 43, 44].” left out, “Switzerland). […]” for “Switzerland).”

Setting [5] is: human, liver microsomes, probe testosterone.

T2 sequence (P11509 whole entry): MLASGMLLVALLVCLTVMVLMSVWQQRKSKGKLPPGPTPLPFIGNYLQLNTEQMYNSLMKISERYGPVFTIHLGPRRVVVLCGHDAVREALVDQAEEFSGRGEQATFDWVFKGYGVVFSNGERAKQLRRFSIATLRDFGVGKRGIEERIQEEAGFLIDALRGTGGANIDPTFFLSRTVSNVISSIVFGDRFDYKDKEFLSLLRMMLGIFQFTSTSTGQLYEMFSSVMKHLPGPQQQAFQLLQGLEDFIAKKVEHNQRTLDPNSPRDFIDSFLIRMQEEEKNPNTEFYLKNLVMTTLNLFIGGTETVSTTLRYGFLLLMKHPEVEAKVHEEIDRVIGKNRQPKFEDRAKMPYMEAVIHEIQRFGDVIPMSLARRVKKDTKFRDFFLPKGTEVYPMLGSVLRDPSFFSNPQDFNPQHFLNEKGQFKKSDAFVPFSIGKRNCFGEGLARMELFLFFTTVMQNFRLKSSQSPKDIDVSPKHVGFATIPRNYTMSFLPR
T1 sequence (P33261 whole entry): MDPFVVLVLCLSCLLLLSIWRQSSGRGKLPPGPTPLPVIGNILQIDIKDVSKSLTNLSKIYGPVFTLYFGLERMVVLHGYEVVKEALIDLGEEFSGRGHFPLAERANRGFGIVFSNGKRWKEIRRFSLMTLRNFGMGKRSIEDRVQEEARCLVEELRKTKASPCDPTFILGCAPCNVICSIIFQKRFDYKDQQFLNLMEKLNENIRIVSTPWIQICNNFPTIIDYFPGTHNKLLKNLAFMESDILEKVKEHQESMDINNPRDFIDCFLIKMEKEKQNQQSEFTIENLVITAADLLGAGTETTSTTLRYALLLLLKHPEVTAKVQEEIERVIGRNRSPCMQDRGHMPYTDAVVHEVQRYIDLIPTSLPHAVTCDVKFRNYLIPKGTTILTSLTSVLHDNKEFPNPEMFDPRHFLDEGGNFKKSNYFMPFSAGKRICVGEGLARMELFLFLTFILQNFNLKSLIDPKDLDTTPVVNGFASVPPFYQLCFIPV

Turning to `C=CC(C)(O)CC/C=C(\C)CCC=C(C)C` (stereo not drawn) [TNER, trans-nerolidol], the Ki in data set [1] turned out to be 2.41 ± 0.33 µM; in data set [2] it was 0.55 ± 0.11 µM. The IC50 at CYP2C19 turned out to be 76.4 ± 52.1 µM; in the data set on CYP3A4/5 [3] (setting [5]), 51 µM; in the data set with CYP3A4/5 [3], 50.5 ± 13.5 µM.
At CYP2A6, `CC(C)=CCC/C(C)=C/CC/C(C)=C/CO` [FAR, farnesol] returned an IC50 of 85.9 ± 22.9 µM.
For `C=CC(C)(O)CC/C=C(/C)CCC=C(C)C` (stereo not drawn) [CNER, cis-nerolidol], the IC50 with CYP3A4/5 [3] (setting [5]) was determined as 186 ± 125 µM; in the data set on CYP3A4/5 [4] (human, liver microsomes, probe midazolam), 66 µM; in the data set with CYP3A4/5 [4], 66.1 ± 30.5 µM.

Usually Ki stands for the dissociation constant of the complex between target and ligand, obtained from inhibition or displacement. The IC50 is the midpoint of a concentration-inhibition curve. A lower IC50 goes with higher potency.
